Data from patent US20170350876A1, “BIOSENSOR FOR SINGLE CELL ANALYSIS” (priority 2016, published 2017).

Experiments:
MCF-7 single cells = assay: Single cell impedance monitoring on the biosensor (EDR single cell analysis); type: cell-based, human; conditions: for mean impedance changes of the single cells over time, in words: 2.1 and 10.5 nM MBZ, 0.1 and 1 nM PTX, nano-roughened biosensor, about 4 kHz, FIG. 12A
Method: MCF-7 cell lines which were acquired to be used in this example. The cell lines have been separated from grad I human breast tumors. The cell lines were maintained at 37° C. in an incubator (about 5% CO2, about 95% clean air) and in RPMI-1640 medium supplemented with about 5% fetal bovine serum and about 1% penicillin/streptomycin. The fresh medium was replaced every other day. In order to detach cell from the substrate and become suspended in cell solution, cells was trypsynized. As performing cell culturing process at room temperature of about 20° C. -22° C., trypsinization should be done in less than about 6 minutes to minimize the influence of trypsinization. The cell solution was dropped onto an exemplary biosensor, which was fabricated according to EXAMPLE 1, and then the biosensor was maintained in an incubator for about 4 hours to reach cells attachment on the biosensor surface and trapping single cells within microwells of the biosensor.
Exemplary biosensors with cell solutions dropped onto them (as described herein in EXAMPLE 2) were maintained in an incubator for about 4 hours to reach cells attachment on biosensors surface. MBZ and PTX antitubulin drugs were added into the microwells containing single cells in low concentrations (about 2.1 nM for MBZ and about 0.1 nM for PTX) and high concentrations (about 10.5 nM for MBZ and about 1 nM for PTX) concentrations. The signals were recorded 2 hours, 5 hours, 8 hours, 20 hours, 32 hours, and 44 hours after drug addition that means 6 hours, 9 hours, 12 hours, 24 hours, […]. Electrical signals Measurements were collected in frequencies ranged from about 1 KHz to about 60 KHz by impedance measurement system (electrical signal extraction board) at about every 2 hours. A small “ac” sinusoidal signal was applied to the sensors. For different frequencies of the “ac” signal, the sensitivity of the sensor would vary which is called as the frequency characteristics. The bias voltage of the system was about 40 mV which wasn't destructive for cellular metabolism and a series resistance was used as current limiter element. For each cell trapped in each microwell of the biosensors, four electrodes may be used for signal extraction in two states (with up-down or right-left neighbor electrodes). The final result may be the average of the several signals extracted from the different sensors on a chip (several microwells on a biosensor) to consider cellular heterogeneity and different positioning of the cells relative to the electrodes and other parameters.
FIGS. 10A-10F show impedance diagrams for a MCF-7 single cell seeded and trapped in a microwell between electrodes about 4 hours after dropping the solution containing cells, which was assumed as an initial time (T=0) for all measurement experiments. After the attachment of the cell on the region between recording or sensing electrodes (after about 4 hours), observable increment in impedance was recorded with respect to media solution covered state (curve 1001 Vs. curve 1002 in FIG. 10A). T parameter was defined as a time merit started after dropping of the cells (t=4 hours was assumed equal to T=0). Delta Z (ΔZ) may include the difference between impedance at about 4 hours after cell seeding (equal to T=0) and the 4+x^th hours (x may be equal to 2, 5, 8, etc.), divided by the impedance at T=0. Average impedance of all frequencies were used for comparison. For better comprehension of impedimetric regime, the impedance changes of the CTRL cell were plotted in subsequently next time periods (about 6th, 9th, 12th and 24th hours) with respect to the impedance of the sensor in 4th hours after dropping the cells solution that are shown by curves 1003 (at T=2 or t=6 hours), 1004 (at T=5 or t=9 hours), 1005 (at T=8 or t=12 hours), and 1006 (at T=20 or t=24 hours) in FIG. 10B. […]

[1] = system: MCF-7 cells, cytoskeletal structure (microtubules); assay: Confocal imaging of drug treated single cells (anti-α-tubulin staining); conditions: 10.5 nM MBZ or 1 nM PTX, about 20 hours after drug treatment, compared with CTRL

CC(=O)O[C@H]1C(=O)[C@@]2(C)[C@H]([C@H](OC(=O)c3ccccc3)[C@]3(O)C[C@H](OC(=O)[C@H](O)[C@@H](NC(=O)c4ccccc4)c4ccccc4)C(C)=C1C3(C)C)[C@]1(OC(C)=O)CO[C@@H]1C[C@@H]2O [PTX, Paclitaxel]
impedance increment (MCF-7 single cells; 0.1 nM PTX, T=about 2 hours, relative to T=0, FIG. 10E): about 10%
impedance increment (MCF-7 single cells; 0.1 nM PTX, T=about 5 hours, relative to T=0, FIG. 10E): ~30%
impedance increment (MCF-7 single cells; 0.1 nM PTX, T=about 8 hours, relative to T=0, FIG. 10E): ~35%
impedance increment (MCF-7 single cells; 0.1 nM PTX, T=about 20 hours, relative to T=0, FIG. 10E): ~45%
impedance increment (MCF-7 single cells; 1 nM PTX (high dose), T=2 hours, FIG. 10F): about 5%
impedance increment (MCF-7 single cells; 1 nM PTX (high dose), T=5 hours, FIG. 10F): ~15%
impedance increment (MCF-7 single cells; 1 nM PTX (high dose), T=8 hours, FIG. 10F): ~20%
impedance increment (MCF-7 single cells; 1 nM PTX (high dose), T=20 hours, FIG. 10F): ~25%
mean impedance changes of the single cells over time, in words (MCF-7 single cells): moderate impedance increment with dose dependent reductive regime
effect on cytoskeletal structure and mitosis (confocal images), in words [1]: aggregated MTs as polymerizing effect of Taxol on cytoskeletal structure which induced mitotic arrest in the cell and deformed the nucleus during the mitosis

COC(=O)Nc1nc2ccc(C(=O)c3ccccc3)cc2[nH]1 [MBZ, methyl5-benzoyl-2-benzimidazole-carbamate]
impedance reduction (MCF-7 single cells; 2.1 nM MBZ, T=2 hours, relative to T=0, FIG. 10C): about 5%
impedance reduction (MCF-7 single cells; 2.1 nM MBZ, T=6 hours (so in the source), relative to T=0, FIG. 10C): ~10%
impedance reduction (MCF-7 single cells; 2.1 nM MBZ, T=8 hours, relative to T=0, FIG. 10C): about 15%
impedance reduction (MCF-7 single cells; 2.1 nM MBZ, T=20 hours, relative to T=0, FIG. 10C): ~30%
impedance reduction (MCF-7 single cells; 10.5 nM MBZ, first time interval (T=2 hours), FIG. 10D): about 15%
impedance reduction (MCF-7 single cells; 10.5 nM MBZ, fourth time interval (T=20 hours), FIG. 10D): ~45%
impedance reduction (MCF-7 single cells; 10.5 nM MBZ, second time interval (T=6 hours as printed), FIG. 10D): ~25%
impedance reduction (MCF-7 single cells; 10.5 nM MBZ, third time interval (T=8 hours), FIG. 10D): ~35%
mean impedance changes of the single cells over time, in words (MCF-7 single cells): continues reduction in the impedance which exhibited a linier correlation with doses of the drug
effect on cytoskeletal structure and mitosis (confocal images), in words [1]: No entrance to even primary cycles of mitosis, degraded distribution of cytoskeleton and monoastered microtubules
